Patent publication US20240335407A1, “PHARMACEUTICAL COMPOSITION AND USE THEREOF” (NEURODAWN PHARMACEUTICAL CO., LTD., priority 2021, published 2024)

Experiments:
[1] = test system: neuropathic pain induced by separate L5 spinal nerve ligation (SNL); test: Mechanical pain threshold (MWT) in the L5 spinal nerve ligation (SNL) model of neuropathic pain, with synergy analysis (Jin Zhengjun q, CompuSyn CI); type: in vivo, Sprague-Dawley (SD) rats; settings: Mean ± SEM
[2] = test system: neuropathic pain induced by separate L5 spinal nerve ligation (SNL); test: as above; type: in vivo, Sprague-Dawley (SD) rats; settings: Example 1, Mean ± SEM
Description: In this experiment, the model of neuropathic pain induced by separate L5 spinal nerve ligation (SNL) was adopted. Animals were anesthetized with 7% chloral hydrate (dosage: 420 mg/kg, intraperitoneal injection), and the limbs of rats were fixed in a prone position. The rats were placed under dissecting microscope with the back hair-cut off, then wiped and disinfected with alcohol. An incision about 2-3 cm long was cut on the right side of the dorsal spine, and the two spinal nerves L4 and L5 were exposed, the spinal nerve L5 was lightly ligated with 6-0 braided line to avoid damage to the contiguous spinal nerves. Double-layer suture was performed on the back incisions of the experimental animals, and disinfected with iodophor, then the experimental animals were gently put into a feeding cage, allowed to free access to movement, eating and drinking.
Mechanical withdrawal threshold (MWT) of all experimental animals was measured by mechanical automatic stimulated needle. The experimental animals were placed in a transparent plexiglass box with iron gauze at the bottom, and after acclimatization for 30 minutes, the vola of the hind limbs of the experimental animals were stimulated with a stimulated needle at a uniform speed, and the reaction threshold when rats rapidly retracted or shook their feet was recorded (as MWT), which was the mechanical pain threshold of the animals.
The basic mechanical pain threshold of each experimental animal was measured for 2 days […], and the basic mechanical pain threshold of experimental animals was the average of two values. […]
The L5-SNL model was prepared by selecting SD rats with appropriate weight, and the measurement of postoperative mechanical pain threshold was started at least 7 days after modeling. […] The experimental model animals were administered corresponding drugs or solvents, and the mechanical pain threshold of animals was measured at 0.5 h and 3 h after administration. […]

[3] = Example 1, 0.5 mg/kg intraperitoneal
[4] = Example 2, 1 mg/kg intraperitoneal
[5] = Example 2, 10 mg/kg intraperitoneal
[6] = Example 3, 3 mg/kg intraperitoneal
[7] = Example 3, 12 mg/kg intraperitoneal
[8] = Example 4, 3 mg/kg intraperitoneal
[9] = Example 4, 6 mg/kg intraperitoneal
[10] = Example 4, 12 mg/kg intraperitoneal
[11] = Example 5, 3 mg/kg intraperitoneal
[12] = Example 5, 6 mg/kg intraperitoneal
[13] = Example 6, 6 mg/kg intraperitoneal
[14] = Example 6, 7.5 mg/kg intraperitoneal
[15] = Example 6, 10 mg/kg intraperitoneal
[16] = Example 2, 20 mg/kg intraperitoneal
[17] = Example 3, 18 mg/kg intraperitoneal
[18] = Example 3, 30 mg/kg intraperitoneal
[19] = Example 4, 9 mg/kg intraperitoneal
[20] = Example 4, 18 mg/kg intraperitoneal
[21] = Example 5, 9 mg/kg intraperitoneal

Nc1nc2ccc(OC(F)(F)F)cc2s1 [riluzole]
pain threshold at 0.5 h after administration [1, 3]: 14.25 ± 0.90 g | pain threshold at 3 h after administration ([1]; Example 1, 10 mg/kg intraperitoneal): 19.87 ± 0.92 g | pain threshold at 0.5 h after administration [1, 4]: 14.08 ± 0.92 g | pain threshold at 3 h after administration [1, 4]: 14.01 ± 0.99 g | pain threshold at 0.5 h after administration [1, 5]: 21.79 ± 1.33 g | pain threshold at 3 h after administration [1, 5]: 20.63 ± 1.12 g | pain threshold at 0.5 h after administration [1, 6]: 15.48 ± 0.92 g | pain threshold at 3 h after administration [1, 6]: 15.16 ± 1.31 g | pain threshold at 0.5 h after administration [1, 7]: 22.54 ± 1.33 g | pain threshold at 3 h after administration [1, 7]: 21.69 ± 1.12 g | pain threshold at 0.5 h after administration [1, 8]: 15.43 ± 0.69 g | pain threshold at 3 h after administration [1, 8]: 15.03 ± 0.79 g | pain threshold at 0.5 h after administration [1, 9]: 18.47 ± 0.37 g | pain threshold at 3 h after administration [1, 9]: 17.47 ± 0.73 g | pain threshold at 0.5 h after administration [1, 10]: 22.54 ± 1.33 g | pain threshold at 3 h after administration [1, 10]: 21.69 ± 1.12 g | pain threshold at 0.5 h after administration [1, 11]: 15.35 ± 0.58 g | pain threshold at 3 h after administration [1, 11]: 14.98 ± 0.84 g | pain threshold at 0.5 h after administration [1, 12]: 18.21 ± 0.47 g | pain threshold at 3 h after administration [1, 12]: 17.45 ± 0.46 g | pain threshold at 0.5 h after administration [1, 13]: 22.96 g | pain threshold at 3 h after administration [1, 13]: 15.74 ± 0.93 g | pain threshold at 6 h after administration [1, 13]: 15.08 ± 0.77 g | pain threshold at 8 h after administration [1, 13]: 14.95 ± 0.81 g | pain threshold at 3 h after administration [1, 14]: 16.44 ± 1.07 g | pain threshold at 6 h after administration [1, 14]: 16.52 ± 1.06 g | pain threshold at 8 h after administration [1, 14]: 15.49 ± 1.18 g | pain threshold at 3 h after administration [1, 15]: 17.89 ± 1.16 g | pain threshold at 6 h after administration [1, 15]: 17.46 ± 1.23 g | pain threshold at 8 h after administration [1, 15]: 16.93 ± 1.15 g | pain threshold at 3 h after administration ([2]; 0.5 mg/kg intraperitoneal, 3 h): 14.04 ± 0.91 g | pain threshold at 0.5 h after administration ([2]; 10 mg/kg intraperitoneal): 21.56 ± 1.24 g

CC(C)C[C@H](CN)CC(=O)O [pregabalin, (S)-3-aminomethyl-5-methylhexanoic acid]
pain threshold at 0.5 h after administration [1, 3]: 15.48 ± 1.27 g | pain threshold at 3 h after administration [1, 3]: 15.54 ± 1.15 g | pain threshold at 3 h after administration ([1]; Example 1, 25 mg/kg intraperitoneal): 24.65 ± 0.34 g | pain threshold at 0.5 h after administration [1, 4]: 15.57 ± 1.04 g | pain threshold at 3 h after administration [1, 4]: 15.68 ± 1.32 g | pain threshold at 0.5 h after administration [1, 16]: 17.04 ± 0.54 g | pain threshold at 3 h after administration [1, 16]: 24.76 ± 0.73 g | pain threshold at 0.5 h after administration [1, 6]: 15.19 ± 1.31 g | pain threshold at 3 h after administration [1, 6]: 16.75 ± 1.14 g | pain threshold at 0.5 h after administration [1, 17]: 16.36 ± 1.35 g | pain threshold at 3 h after administration [1, 17]: 23.92 ± 1.30 g | pain threshold at 0.5 h after administration [1, 18]: 18.05 ± 0.73 g | pain threshold at 3 h after administration [1, 18]: 26.13 ± 0.91 g | pain threshold at 0.5 h after administration [1, 8]: 15.24 ± 0.95 g | pain threshold at 3 h after administration [1, 8]: 16.96 ± 1.22 g | pain threshold at 0.5 h after administration [1, 19]: 15.03 ± 1.21 g | pain threshold at 3 h after administration [1, 19]: 21.13 ± 1.13 g | pain threshold at 0.5 h after administration [1, 20]: 16.26 ± 0.74 g | pain threshold at 3 h after administration [1, 20]: 24.54 ± 0.56 g | pain threshold at 0.5 h after administration [1, 11]: 15.35 ± 0.57 g | pain threshold at 3 h after administration [1, 11]: 16.73 ± 1.15 g | pain threshold at 0.5 h after administration [1, 12]: 15.24 ± 1.15 g | pain threshold at 3 h after administration [1, 12]: 19.15 ± 1.21 g | pain threshold at 0.5 h after administration [1, 21]: 15.78 ± 0.83 g | pain threshold at 3 h after administration [1, 21]: 21.66 ± 0.79 g | pain threshold at 0.5 h after administration [1, 13]: 17.39 ± 1.26 g | pain threshold at 3 h after administration [1, 13]: 19.62 g | pain threshold at 6 h after administration [1, 13]: 19.49 g | pain threshold at 8 h after administration [1, 13]: 19.26 g | pain threshold at 0.5 h after administration ([1]; Example 6, 20 mg/kg intraperitoneal): 17.53 ± 1.33 g | pain threshold at 0.5 h after administration ([1]; Example 6, 30 mg/kg intraperitoneal): 18.65 ± 1.24 g | pain threshold at 0.5 h after administration ([2]; 25 mg/kg intraperitoneal): 17.41 ± 0.58 g
